Measured values as given in patent US8796268B2, “Heteroaryls and uses thereof” (Millennium Pharmaceuticals, Inc., priority 2010, dated 2014).
Where two headings read alike, the source gives them in different places.

Columns and labels:
Assay type in all cases: biochemical
[1] = target: T1, Human PI3K beta (Homo sapiens, UniProt P42338); assay: Human PI3K beta enzyme assay (HTRF); settings: for IC50: read-out: PI3 Kbeta IC50
T1 construct: His (N); host or cells: SF9 insect cells (baculovirus)
Excerpt: (§1) The catalytic subunits of PI3Ks are cloned into either pDEST8(p110 alpha) or pDEST10(p110beta, p110delta, and p110gamma) as N-terminal His tagged fusion proteins using the Gateway system (Invitrogen, catalog#11804-010 for pDEST8 and 11806-015 for pDEST10). The sequences are verified before recombinant protein expression using the Baculovirus Expression System with Gateway® Technology. The accession numbers for the subunits are as follows: • p110 alpha (GB:U79143) • p110beta (GB: S67334) • p110delta (GB: U86453) • p110gamma (GB: X83368) • The regulatory subunits of PI3Ks are cloned into pDEST8 as un-tagged protein using the Gateway system (Catalog#11804-010). The sequences are verified before recombinant protein expression using the Baculovirus Expression System with Gateway® Technology. The accession numbers for the subunits are as following: • p85 alpha (GB: BC030815) • p101(GB: AB028925) • VPS34 (accession number GB:BC033004) is cloned into pDEST20—Thombin as N-terminal GST tagged fusion proteins using the Gateway system (Invitrogen, catalog#11804-013). The sequences are verified before recombinant protein expression using the Baculovirus Expression System with Gateway® Technology.
(§2) For expression of the p110 complexes, the p85 (MOI of 4) is co-infected with p110 alpha, beta, and delta respectively (1MOI) in SF9 cells and harvested at 60 hours post co-infection. P110 gamma was infected at 1 MOI and harvested at 60 hours post infection.
(§3) For purification, PI3Ks are purified by Ni-NTA Agarose (Qiagen #30250) followed by Mono Q 10/100 GL (Ge Healthcare #17-5167-01). VPS34 is purified by Glutathione Sepharose 4 Fast Flow (GE Healthcare #17-5132-03) followed by HiTrap Q (GE Healthcare #17-1153-01).
(§4) 0.5 uL compounds in DMSO are added to wells of a 384 well microtitre plate (Corning 3575). At room temperature: 10 ul PI3K reaction buffer (50 mM Hepes, 5 mM DTT, 150 mM NaCl, 10 mM beta-glycerophosphate, 10 mM MgCl2, 0.25 mM sodium cholate and 0.001% CHAPS, pH 7.00) containing ATP (25 uM, Promega) is added followed immediately by 10 ul PI3K reaction buffer containing di-C8 P1(4,5)P2 (3.5 uM, CellSignals) and PI3Kalpha (0.4875 nM, Millennium Protein Sciences Group) and the mixture is incubated with shaking at room temperature for 30 minutes. Then 5 ul PI3K stop mix (50 mM Hepes, 5 mM DTT, 150 mM NaCl, 0.01% Tween-20, 15 mM EDTA and 25 nM biotin-PI(3,4,5)P3 (Echelon) is added to quench the reaction followed immediately by addition of 5 ul HTRF detection mix (50 mM Hepes, 5 mM DTT, 150 mM NaCl, 0.01% Tween-20, 40 mM KF, 1.0 nM GST:GRP-1 PH domain (Millennium Protein Sciences Group), 15 nM Streptavidin-XL (CisBio) and 0.375 nM anti-GST Eu++ antibody (CisBio) at pH 7.00). The plates are then incubated for 1 hour at room temperature with shaking and then read on a BMG PheraStar Plus reader.
(§5) 2) Human PI3K beta, delta and gamma isoforms are tested using the procedure described for PI3K alpha above but with the following changes: PI3K beta (5.25 nM), PI3K delta (0.75 nM) and PI3K gamma (5 nM). All isoforms supplied by Millennium Protein Science Group.
(§6) For the assay methods described above, test compound percent inhibition, at various concentrations, is calculated relative to control (DMSO and EDTA) treated samples. Compound concentration versus percent inhibition curves are fitted to generate IC50 values. One skilled in the art will appreciate that the values generated either as percentage inhibition at a single concentration or IC50 values are subject to experimental variation.

[2] = target: T2, Human PI3K delta (Homo sapiens, UniProt O00329); assay: Human PI3K delta enzyme assay (HTRF); settings: concentration not given, b1389 states 1.0 μM for PI3K δ and γ; for inhibition at 1 µM: read-out: p110 delta Percent Inhibition
T2 construct: His (N); host or cells: SF9 insect cells (baculovirus)
Excerpt: as §1, §2, §3, §4, §5, §6

[3] = target: T3, Human PI3K gamma (Homo sapiens, UniProt P48736); assay: Human PI3K gamma enzyme assay (HTRF); settings: concentration not given, b1389 states 1.0 μM for PI3K δ and γ; for inhibition at 1 µM: read-out: p110 gamma Percent Inhibition
T3 construct: His (N); host or cells: SF9 insect cells (baculovirus)
Excerpt: as §1, §2, §3, §4, §5, §6

[4] = target: T4, Human PI3K alpha (Homo sapiens, UniProt P42336); assay: Human PI3K alpha enzyme assay (HTRF); settings: for IC50: read-out: PI3Kalpha IC50
T4 construct: His (N); host or cells: SF9 insect cells (baculovirus)
Excerpt: as §1, §2, §3
1) Human PI3K alpha enzyme assay method
as §4, §6

[5] = concentration not given, b1387 states 1.1 μM for PI3K α and β, read-out: p110 beta Percent Inhibition
[6] = concentration not given, b1387 states 1.1 μM for PI3K α and β, read-out: p110 alpha Percent Inhibition
[7] = concentration not given, b1387 states 1.1 μM for PI3K α and β
[8] = at a 1.1 μM concentration, read-out: PI3β Percent Inhibition
[9] = at a 1.1 μM concentration, read-out: PI3Kα Percent Inhibition

T3 sequence (P48736 whole entry): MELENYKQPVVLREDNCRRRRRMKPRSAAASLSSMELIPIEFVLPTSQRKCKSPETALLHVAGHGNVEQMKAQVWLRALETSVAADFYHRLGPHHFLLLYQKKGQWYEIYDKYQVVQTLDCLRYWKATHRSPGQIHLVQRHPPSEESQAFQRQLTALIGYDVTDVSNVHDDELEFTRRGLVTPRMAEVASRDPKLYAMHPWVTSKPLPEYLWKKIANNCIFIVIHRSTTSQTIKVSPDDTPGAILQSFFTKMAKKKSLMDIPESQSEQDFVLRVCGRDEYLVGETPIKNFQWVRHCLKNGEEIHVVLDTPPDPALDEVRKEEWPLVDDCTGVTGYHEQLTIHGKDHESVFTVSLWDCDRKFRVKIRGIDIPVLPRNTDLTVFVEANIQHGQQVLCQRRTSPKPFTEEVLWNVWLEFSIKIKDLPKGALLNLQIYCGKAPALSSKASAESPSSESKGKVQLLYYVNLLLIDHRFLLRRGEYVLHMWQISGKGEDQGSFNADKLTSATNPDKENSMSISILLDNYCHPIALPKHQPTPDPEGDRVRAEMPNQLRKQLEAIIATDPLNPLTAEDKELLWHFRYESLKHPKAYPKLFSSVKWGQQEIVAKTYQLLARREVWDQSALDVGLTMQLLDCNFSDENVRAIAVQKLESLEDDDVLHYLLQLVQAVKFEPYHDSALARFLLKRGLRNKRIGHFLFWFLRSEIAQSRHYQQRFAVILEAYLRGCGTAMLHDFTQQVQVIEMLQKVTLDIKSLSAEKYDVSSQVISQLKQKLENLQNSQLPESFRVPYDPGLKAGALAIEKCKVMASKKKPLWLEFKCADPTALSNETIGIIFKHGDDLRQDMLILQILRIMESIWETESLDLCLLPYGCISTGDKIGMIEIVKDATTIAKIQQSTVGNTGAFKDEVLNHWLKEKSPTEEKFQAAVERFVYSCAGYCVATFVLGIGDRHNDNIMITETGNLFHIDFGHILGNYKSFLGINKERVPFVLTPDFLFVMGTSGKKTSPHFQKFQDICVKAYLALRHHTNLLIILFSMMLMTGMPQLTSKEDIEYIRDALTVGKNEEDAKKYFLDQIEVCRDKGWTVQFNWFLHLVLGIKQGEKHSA
T4 sequence (P42336 whole entry): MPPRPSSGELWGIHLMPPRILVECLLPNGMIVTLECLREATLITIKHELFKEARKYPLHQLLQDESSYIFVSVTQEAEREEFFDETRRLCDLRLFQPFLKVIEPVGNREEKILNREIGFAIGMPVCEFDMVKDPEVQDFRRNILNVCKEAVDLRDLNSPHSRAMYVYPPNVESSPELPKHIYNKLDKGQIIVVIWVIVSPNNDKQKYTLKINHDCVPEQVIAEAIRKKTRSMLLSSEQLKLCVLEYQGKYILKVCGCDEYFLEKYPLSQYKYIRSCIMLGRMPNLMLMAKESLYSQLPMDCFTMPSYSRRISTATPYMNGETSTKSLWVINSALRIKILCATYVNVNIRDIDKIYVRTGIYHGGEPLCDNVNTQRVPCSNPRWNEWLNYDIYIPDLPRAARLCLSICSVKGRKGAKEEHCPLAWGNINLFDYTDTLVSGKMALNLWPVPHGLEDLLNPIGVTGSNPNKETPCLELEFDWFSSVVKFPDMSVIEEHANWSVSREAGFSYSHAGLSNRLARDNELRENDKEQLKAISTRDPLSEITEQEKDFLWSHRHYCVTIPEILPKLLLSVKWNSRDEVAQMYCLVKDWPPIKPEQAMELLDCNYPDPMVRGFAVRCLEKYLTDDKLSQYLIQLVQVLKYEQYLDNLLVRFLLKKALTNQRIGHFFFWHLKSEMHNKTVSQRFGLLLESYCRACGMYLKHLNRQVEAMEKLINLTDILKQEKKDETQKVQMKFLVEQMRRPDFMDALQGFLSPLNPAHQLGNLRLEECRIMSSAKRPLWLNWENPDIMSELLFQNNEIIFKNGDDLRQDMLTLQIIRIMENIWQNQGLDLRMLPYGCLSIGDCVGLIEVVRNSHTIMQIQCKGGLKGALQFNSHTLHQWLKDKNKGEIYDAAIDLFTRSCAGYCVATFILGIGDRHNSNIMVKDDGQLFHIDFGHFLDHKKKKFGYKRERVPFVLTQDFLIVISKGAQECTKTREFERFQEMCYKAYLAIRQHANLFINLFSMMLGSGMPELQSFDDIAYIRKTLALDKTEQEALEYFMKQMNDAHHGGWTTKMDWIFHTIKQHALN
T4 sequence (P27986 whole entry partner): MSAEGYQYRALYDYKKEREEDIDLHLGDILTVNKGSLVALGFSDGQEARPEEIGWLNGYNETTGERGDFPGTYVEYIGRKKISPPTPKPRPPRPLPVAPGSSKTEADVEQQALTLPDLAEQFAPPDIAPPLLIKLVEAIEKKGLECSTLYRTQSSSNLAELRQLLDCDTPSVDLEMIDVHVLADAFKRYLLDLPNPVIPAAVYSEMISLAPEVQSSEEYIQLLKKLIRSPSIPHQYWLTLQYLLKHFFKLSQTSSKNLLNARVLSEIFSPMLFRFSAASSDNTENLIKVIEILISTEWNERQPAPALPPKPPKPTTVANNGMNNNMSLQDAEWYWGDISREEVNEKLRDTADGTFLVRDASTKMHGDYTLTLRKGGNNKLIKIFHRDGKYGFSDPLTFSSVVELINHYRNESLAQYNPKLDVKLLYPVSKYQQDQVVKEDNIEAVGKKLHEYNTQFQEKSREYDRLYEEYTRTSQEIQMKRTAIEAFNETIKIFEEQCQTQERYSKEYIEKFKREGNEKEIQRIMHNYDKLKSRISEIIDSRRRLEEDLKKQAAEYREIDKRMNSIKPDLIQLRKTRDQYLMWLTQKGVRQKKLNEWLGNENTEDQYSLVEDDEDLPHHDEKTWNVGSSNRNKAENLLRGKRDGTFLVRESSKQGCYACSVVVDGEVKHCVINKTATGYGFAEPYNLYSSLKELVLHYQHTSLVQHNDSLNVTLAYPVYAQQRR
T2 sequence (O00329 whole entry): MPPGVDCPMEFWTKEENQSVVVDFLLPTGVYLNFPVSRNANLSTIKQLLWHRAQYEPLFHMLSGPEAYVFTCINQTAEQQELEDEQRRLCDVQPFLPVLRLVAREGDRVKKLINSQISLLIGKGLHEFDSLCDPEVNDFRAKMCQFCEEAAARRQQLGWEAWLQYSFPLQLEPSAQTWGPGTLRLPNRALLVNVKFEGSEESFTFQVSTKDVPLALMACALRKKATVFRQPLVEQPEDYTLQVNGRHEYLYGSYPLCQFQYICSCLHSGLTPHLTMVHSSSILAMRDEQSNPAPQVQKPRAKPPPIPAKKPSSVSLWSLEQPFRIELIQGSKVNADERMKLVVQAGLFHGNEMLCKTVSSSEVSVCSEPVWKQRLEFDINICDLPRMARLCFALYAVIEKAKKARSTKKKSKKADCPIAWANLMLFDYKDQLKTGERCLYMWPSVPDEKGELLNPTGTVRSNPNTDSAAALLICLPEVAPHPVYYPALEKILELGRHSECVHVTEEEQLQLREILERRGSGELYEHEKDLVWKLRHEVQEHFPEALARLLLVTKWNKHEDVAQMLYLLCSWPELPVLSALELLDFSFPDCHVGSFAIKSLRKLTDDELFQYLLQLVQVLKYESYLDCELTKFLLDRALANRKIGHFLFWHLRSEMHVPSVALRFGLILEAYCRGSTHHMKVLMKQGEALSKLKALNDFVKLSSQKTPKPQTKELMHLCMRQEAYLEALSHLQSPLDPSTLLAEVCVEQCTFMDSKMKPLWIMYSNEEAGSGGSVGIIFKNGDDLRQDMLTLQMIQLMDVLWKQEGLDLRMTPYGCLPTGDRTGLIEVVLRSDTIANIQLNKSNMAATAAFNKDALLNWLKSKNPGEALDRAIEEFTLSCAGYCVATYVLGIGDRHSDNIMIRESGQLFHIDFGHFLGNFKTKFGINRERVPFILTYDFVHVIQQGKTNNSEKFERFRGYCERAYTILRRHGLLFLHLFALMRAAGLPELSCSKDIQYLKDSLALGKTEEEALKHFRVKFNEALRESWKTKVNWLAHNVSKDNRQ
T2 sequence (P27986 whole entry partner): as the sequence (P27986 whole entry partner) above
T1 sequence (P42338 whole entry): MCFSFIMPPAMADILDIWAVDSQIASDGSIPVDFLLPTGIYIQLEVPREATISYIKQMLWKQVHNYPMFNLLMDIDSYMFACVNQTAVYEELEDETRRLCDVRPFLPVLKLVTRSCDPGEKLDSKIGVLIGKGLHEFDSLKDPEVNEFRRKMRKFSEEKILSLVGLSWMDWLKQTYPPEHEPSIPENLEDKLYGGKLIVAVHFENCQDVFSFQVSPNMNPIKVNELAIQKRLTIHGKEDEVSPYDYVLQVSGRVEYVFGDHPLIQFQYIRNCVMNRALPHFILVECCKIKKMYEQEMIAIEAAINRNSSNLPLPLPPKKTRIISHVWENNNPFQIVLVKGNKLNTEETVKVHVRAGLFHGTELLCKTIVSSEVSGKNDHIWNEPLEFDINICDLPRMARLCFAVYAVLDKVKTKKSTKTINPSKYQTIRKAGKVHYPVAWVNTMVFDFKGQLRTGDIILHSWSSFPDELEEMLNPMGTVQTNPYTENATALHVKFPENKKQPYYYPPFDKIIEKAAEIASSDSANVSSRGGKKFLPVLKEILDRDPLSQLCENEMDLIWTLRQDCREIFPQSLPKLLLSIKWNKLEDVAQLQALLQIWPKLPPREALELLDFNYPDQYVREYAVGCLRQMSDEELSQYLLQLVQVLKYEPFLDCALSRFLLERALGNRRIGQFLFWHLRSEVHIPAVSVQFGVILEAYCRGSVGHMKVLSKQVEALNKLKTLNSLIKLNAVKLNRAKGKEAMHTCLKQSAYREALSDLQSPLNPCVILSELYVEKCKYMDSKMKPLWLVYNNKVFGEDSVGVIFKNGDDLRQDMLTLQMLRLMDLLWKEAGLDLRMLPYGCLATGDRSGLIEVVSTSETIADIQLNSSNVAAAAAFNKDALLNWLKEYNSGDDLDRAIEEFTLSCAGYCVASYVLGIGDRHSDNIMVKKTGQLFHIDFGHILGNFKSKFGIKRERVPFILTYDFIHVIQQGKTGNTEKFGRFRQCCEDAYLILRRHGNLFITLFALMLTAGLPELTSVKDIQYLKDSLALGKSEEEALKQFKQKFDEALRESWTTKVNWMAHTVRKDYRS
T1 sequence (P27986 whole entry partner): as the sequence (P27986 whole entry partner) above

Row | inhibition at 1 µM [2] | IC50 [1] | IC50 [4] | Compound | other results
1 | 109% |  |  | CC(=O)Nc1cc(-c2cc([C@@H](c3ccc(Cl)cc3)N3CCC3)c(-c3nnc[nH]3)s2)ccn1 (single isomer, unassigned) [Compound 176] | inhibition at 1.1 µM [1, 5]: 109%; inhibition at 1 µM [3]: 35%; inhibition at 1.1 µM [4, 6]: 76%
2 |  |  |  | CC(=O)Nc1cc(-c2cc(C(c3ccc(Cl)cc3)N3CCC[C@H]3CO)c(-c3nnc[nH]3)s2)ccn1 (single isomer, unassigned) [Compound 192] | p110 beta Percent Inhibition [1, 7]: 90%; p110 delta Percent Inhibition [2]: 100%; p110 gamma Percent Inhibition [3]: 12%; p110 alpha Percent Inhibition [4, 7]: 48%
3 | 90% |  |  | CC(=O)Nc1cc(-c2cc([C@@H](c3ccc(Cl)cc3)N(C)C)c(-c3nnc[nH]3)s2)ccn1 (single isomer, unassigned) [Compound 204] | inhibition at 1.1 µM [1, 5]: 101%; inhibition at 1 µM [3]: 25%; inhibition at 1.1 µM [4, 6]: 70%
4 | 104% |  |  | CC(=O)Nc1cc(-c2cc([C@H](c3ccc(Cl)cc3)N3CCC3)c(-c3nnc[nH]3)s2)ccn1 (single isomer, unassigned) [Compound 241] | inhibition at 1.1 µM [1, 5]: 107%; inhibition at 1 µM [3]: 27%; inhibition at 1.1 µM [4, 6]: 59%
5 |  | 100 to 1000 nM | > 1000 nM | Clc1ccc(Cc2nc(-c3ccncc3)sc2-c2nnc[nH]2)cc1 [Compound 76, 4-(4-chlorobenzyl)-2-(pyridin-4-yl)-5-(4H-1,2,4-triazol-3-yl)thiazole] | 
6 |  | < 100 nM | > 1000 nM | O[C@H](c1ccc(Cl)cc1)c1cc(-c2ccncc2)sc1-c1nnc[nH]1 [Compound 77] | 
7 |  | > 1000 nM | > 1000 nM | Fc1cnccc1-c1nc(Cc2ccc(Cl)cc2)c(-c2nc[nH]n2)s1 [Compound 78] | 
8 |  | 100 to 1000 nM | > 1000 nM | OC(c1ccc(Cl)cc1)c1cc(-c2ccnnc2)sc1-c1nnc[nH]1 (stereo not shown) [Compound 79] | 
9 |  | < 100 nM | > 1000 nM | O=C(O)c1sc(-c2ccncc2)nc1Cc1ccc(Cl)cc1 [Compound 80, 4-(4-chlorobenzyl)-2-(pyridin-4-yl)thiazole-5-carboxylic acid] | 
10 |  | < 100 nM | > 1000 nM | N#Cc1cc(-c2cc(C(O)c3ccc(Cl)cc3)c(-c3nnc[nH]3)s2)ccn1 (stereo not shown) [Compound 81, 4-(4-((4-chlorophenyl)(hydroxy)methyl)-5-(4H-1,2,4-triazol-3-yl)thiophen-2-yl)picolinonitrile] | 
11 |  | 100 to 1000 nM | 100 to 1000 nM | Cc1nn2ccc(CNCCNC(=O)OC(C)(C)C)cc2c1-c1nc(Cc2ccc(Cl)cc2)c(-c2nnc[nH]2)s1 [Compound 82] | 
12 |  | 100 to 1000 nM | 100 to 1000 nM | Cc1nn2ccc(CN(CCN)Cc3ccccc3)cc2c1-c1nc(Cc2ccc(Cl)cc2)c(-c2nnc[nH]2)s1 [Compound 83] | 
13 |  | 100 to 1000 nM | > 1000 nM | O[C@@H](c1ccc(Cl)cc1)c1cc(-c2ccncc2)sc1-c1nnc[nH]1 [Compound 84] | 
14 |  | < 100 nM | > 1000 nM | COc1ccc(C(O)c2cc(-c3ccncc3)sc2-c2nnc[nH]2)cc1 (stereo not shown) [Compound 85, (4-methoxyphenyl)[5-pyridin-4-yl-2-(4H-1,2,4-triazol-3-yl)-3-thienyl]methanol] | 
15 |  | < 100 nM | 100 to 1000 nM | CC(=O)Nc1cc(-c2cc(C(c3ccc(Cl)cc3)N(C)C)c(-c3nnc[nH]3)s2)ccn1 (stereo not shown) [Compound 86] | 
16 |  | < 100 nM | > 1000 nM | c1ccc2cc(Cc3nc(-c4ccncc4)sc3-c3nnc[nH]3)ccc2c1 [Compound 87] | 
17 |  | < 100 nM | > 1000 nM | N#Cc1c(-c2ccnnc2)sc(-c2nnc[nH]2)c1Cc1ccc2ccccc2c1 [Compound 88, 4-(2-naphthylmethyl)-2-pyridazin-4-yl-5-(4H-1,2,4-triazol-3-yl)thiophene-3-carbonitrile] | 
18 |  | 100 to 1000 nM | > 1000 nM | N#Cc1c(-c2ccnnc2)sc(-c2nnc[nH]2)c1Cc1ccc(Cl)cc1 [Compound 89] | 

Row | inhibition at 1 µM [2] | IC50 [1] | IC50 [4] | Compound | other results
19 |  | < 100 nM | 100 to 1000 nM | CC(=O)Nc1cc(-c2cc(C(c3ccc(Cl)cc3)N3CCC3)c(-c3nnc[nH]3)s2)ccn1 (stereo not shown) [Compound 90] | 
20 |  | < 100 nM | > 1000 nM | O=c1ccnc(-c2sc(-c3ccncc3)nc2Cc2ccc(Cl)cc2)[nH]1 [Compound 92, 2-(4-(4-chlorobenzyl)-2-(pyridin-4-yl)thiazol-5-yl)pyrimidin-4(3H)-one] | 
21 |  |  |  | O=C(O)c1sc(N2CCOCC2)nc1Cc1ccc(Cl)cc1F [Compound 101] | inhibition at 1.1 µM [1, 8]: 105%; inhibition at 1.1 µM [4, 9]: 30%
22 |  |  |  | O=C(O)c1sc(N2CCOCC2)nc1Cc1ccc2c(c1)OCCO2 [Compound 110, 4-(2,3-dihydro-1,4-benzodioxin-6-ylmethyl)-2-(morpholin-4-yl)-1,3-thiazole-5-carboxylic acid] | inhibition at 1.1 µM [1, 8]: 41%; inhibition at 1.1 µM [4, 9]: 5%
23 |  |  |  | CC(=O)Nc1cc(-c2cc(C(O)(c3ccc(Cl)cc3)C3CCN(C)CC3)c(-c3nnc[nH]3)s2)ccn1 (stereo not shown) [Compound 237, N-(4-{4-[(4-chlorophenyl)(hydroxy)(1-methylpiperidin-4-yl)methyl]-5-(4H-1,2,4-triazol-3-yl)-2-thienyl}pyridin-2-yl)acetamide] | inhibition at 1.1 µM [1, 5]: 89%; inhibition at 1.1 µM [4, 6]: 61%
24 | 112% |  |  | N#Cc1c(N2CCOCC2)sc(C(=O)O)c1Cc1ccc2ccc(F)cc2c1 [Compound 287] | 
25 | 110% |  |  | N#Cc1c(N2CCOCC2)sc(C(=O)O)c1Cc1ccc2ccccc2c1F [Compound 293] | 
26 | 112% |  |  | N#Cc1c(N2CCOCC2)sc(C(=O)O)c1Cc1cc2ccccc2cc1F [Compound 295] | 
27 | 97% |  |  | N#Cc1c(N2CCOCC2)sc(C(=O)O)c1Cc1cc(F)c(Cl)cc1F [Compound 300] | 
28 | 74% |  |  | N#Cc1c(N2CCOCC2)sc(C(=O)O)c1Cc1ccc2c(c1)CCCC2 [Compound 305] | 
29 | 62% |  |  | N#Cc1c(N2CCOCC2)sc(C(N)=O)c1C(F)(F)c1ccc2ccccc2c1 [Compound 307] | 
30 | 92% |  |  | N#Cc1c(N2CCOCC2)sc(C(=O)O)c1C(F)(F)c1ccc2ccccc2c1 [Compound 308] | 
31 | 113% |  |  | N#Cc1c(N2CCOCC2)sc(C(=O)O)c1Cc1cc(F)c2ccccc2c1 [Compound 324] | 
32 |  |  |  | COC(c1ccc2ccccc2c1)c1c(C(=O)O)sc(N2CCOCC2)c1C#N (stereo not shown) [Compound 337] | p110 delta Percent Inhibition [2]: 46%
33 | 113% |  |  | N#Cc1c(N2CCOCC2)sc(C(=O)O)c1Cc1ccc2c(F)cccc2c1 [Compound 343] | 
34 | 83% |  |  | N#Cc1c(N2CCOCC2)sc(C(=O)O)c1C(F)c1ccc2ccccc2c1 (stereo not shown) [Compound 345] | p110 alpha Percent Inhibition [4, 7]: 64%
35 | 96% |  |  | N#Cc1c(N2CCOCC2)sc(-c2nnn[nH]2)c1C(F)(F)c1ccc2ccccc2c1 [Compound 349] | 
